Patent publication US20180318383A1, “PEPTIDE HAVING NEURONAL LOSS PREVENTION AND REGENERATION EFFECTS, AND COMPOSITION CONTAINING SAME” (GEMVAX & KAEL CO., LTD., priority 2015, published 2018)

How the values were obtained:
oligomer Aβ = assay: Expression level of oligomer Aβ in 3XTg-AD mice (western blotting); format: in vivo; conditions: hippocampus and whole brain; vs control and Donepezil
Method: To test the efficacy of PEP1 on AD, AD transgenic mice (3XTg-AD) were purchased from Jackson Laboratory. Genetic characteristics of the transgenic mice are as follows: B6; 129-Psen1tm1Mpm Tg(APPSwe, tauP301L)1Lfa/Mmjax. […] One week after mice were confirmed as pregnant, new mice were delivered and weaned for 3 weeks. Two weeks later, mature mice were obtained.
During the preliminary breeding and the entire period of the experiment, a temperature was maintained at 23±2° C. and a relative humidity was maintained at 60±10%, and then the mice were raised under a 12-hour dark/light cycle. Experimental animals were divided into five groups, and each group included 10 animals. The divided experimental groups are as follows. […]
The PEP1, physiological saline, donepezil and scramble peptide were subcutaneously injected at each concentration three times a week for two months from the age of 12 months, and then two months after the injection, cognitive/memory behavior tests (passive avoidance test and Y maze test) were performed to examine a degree of improvement in cognitive function and memory function. After the brain was extracted to separate the hippocampus, the amounts of amyloid beta in the hippocampus and the whole brain, and the amounts of an amyloid beta oligomer and NFT generated by tau hyperphosphorylation were determined by western blotting and immunostaining. […]

NSCs [1] = assay: Proteomics and antibody microarray of NSCs; format: cell-based, rat; conditions: 20 μM Aβ25-35 + 10 μM PEP1, 48 hours, antibody microarray
Method: The cultured NSCs were washed with cold PBS twice, and disrupted in a sample lysis buffer using a sonicator for 10 seconds. In addition, the cells were disrupted again for a further 1 hour at room temperature. After centrifugation at 15° C. and 15000 g for 1 hour, a non-water-soluble sample was eliminated, and only water-soluble samples were subjected to two-dimensional electrophoresis. A protein concentration was quantified by a Bradford method.
200 μg of a protein sample was loaded on an Immobiline DryStrip gel. […] was performed at 20° C. For electron focusing, a voltage was increased from 150 volts to 3500 volts over 3 hours to allow the sample to enter the gel. Before entering two-dimensionally, the sample was cultured in an equilibration buffer for 10 minutes. […]
For quantitative analysis, images were analyzed with a PDQuest system. […]
To identify a protein through peptide mass fingerprinting, a protein spot was cleaved into smaller peptides using trypsin, well mixed with a-cyano-4-hydroxycinnamic acid in 50% acetonitrile/0.1% TFA, and then analyzed with MALDI-TOF. […]
For antibody microarray analysis, a panorama antibody cell signaling kit was used. […] Array slides were read using a scanner, and results from the obtained scans were analyzed using an analysis program.

NSCs [2] = assay: Oxidative mitochondrial DNA damage (8-OHdG ELISA); format: cell-based, rat; conditions: 20 μM Aβ25-35 + PEP1
Method: The oxidative DNA damage in the mitochondria was observed using an 8-OHdG ELISA kit. The mitochondria DNA was obtained using a genomic DNA isolation kit. 8-OHdG monoclonal antibodies were added to samples and a control group, and then corresponding HRP-attached secondary antibodies were added thereto. The samples were quantified using 8-OHdG and observed by measuring absorbance at 450 nm.

EARPALLTSRLRFIPK (homo sapiens) [PEP1, hTERT-derived peptide consisting of 16 amino acids, telomerase location [611-626]]
expression level of oligomer Aβ (oligomer Aβ): decreased
phosphorylated proteins associated with proliferation (NSCs [1]): recovered
oxidative mitochondrial DNA damage (NSCs [2]): effectively decreased
